Data published in patent publication US8071508B2, “Process for preparing paste-extruded sulfonamide compositions” (priority 2002, dated 2011).
≈ marks a conversion by molar mass, not a printed value.

How the values were obtained:
[1] = in water at ambient temperatures, typically about 20 to 25° C.; cited from earlier work
[2] = Solubility of sulfonamide herbicide in pH 7 buffered water; conditions: pH 7, aqueous buffer, thermodynamic from solid
Description: At least 1 times up to about 5 times the amount of sulfonamide needed for saturation is added to a mixing vessel containing stock buffer solution at the test temperature (e.g., 20° C.). The mixture is magnetically stirred in the dark while being maintained at the test temperature. Samples are periodically removed for analysis. The samples are centrifuged using a high speed, temperature-controlled centrifuge at the test temperature for about 20 minutes at ≧12000 G to remove suspended particles. An aliquot of each supernatant is taken for analysis.
The concentration of sulfonamide in the supernatant is determined by a high pressure liquid chromatography (HPLC) method suitable for the particular sulfonamide. Typically the HPLC method will use a reversed phase chromatography column and UV detection. […] Also, the pH of the supernatant is measured using a calibrated pH meter capable of resolving differences of 0.1 pH units or less to verify that the pH is 7. Samples are successively withdrawn from the mixing vessel and analyzed until three successive samples show little or no variation in concentration. The test is preferably replicated to ensure accuracy.

[3] = cited from earlier work

In the case of `COc1cc(OC)nc(NC(=O)NS(=O)(=O)N(C)S(C)(=O)=O)n1` [amidosulfuron, N-[[[[(4,6-dimethoxy-2-pyrimdinyl)amino]carbonyl]amino]-sulfonyl]-N-methylmethanesulfonamide], the pKa [1] is listed as 3.6.

In the case of `CCOc1nc(F)cc2nc(S(=O)(=O)Nc3c(Cl)cccc3C(=O)OC)nn12` [cloransulam-methyl, methyl 3-chloro-2-[[(5-ethoxy-7-fluoro[1,2,4]-triazolo[1,5-c]pyrimidin-2-yl)sulfonyl]amino]benzoate], the pKa [1] is listed as 4.8.

For `CCOc1nc(NC)nc(NC(=O)NS(=O)(=O)c2ccccc2C(=O)OC)n1` [ethametsulfuron-methyl, methyl 2-[[[[[4-ethoxy-6-(methylamino)-1,3,5-triazin-2-yl]amino]carbonyl]amino]sulfonyl]benzoate], the pKa [1] is given as 4.6.

In the case of `CCOC(=O)c1cnn(C)c1S(=O)(=O)NC(=O)Nc1nc(OC)cc(OC)n1` [pyrazosulfuron-ethyl, ethyl 5-[[[[(4,6-dimethoxy-2-pyrimidinyl)amino]carbonyl]amino]sulfonyl]-1-methyl-1H-pyrazole-4-carboxylate], the pKa [1] is given as 3.7.

For “methyl 2-[[[[[4,6-bis(trifluoromethoxy)-2-pyrimidinyl]amino]carbonyl]amino]sulfonyl]-benzoate [primisulfuron-methyl]”, the pKa [1] is listed as 3.5.

For `COc1ncc(F)c2nc(S(=O)(=O)Nc3c(F)cccc3F)nn12` [florasulam, N-(2,6-difluorophenyl)-8-fluoro-5-methoxy[1,2,4]triazolo[1,5-c]pyrimidine-2-sulfonamide], the pKa [1] is given as 4.5.

In the case of `COC(=O)c1ccccc1S(=O)(=O)NC(=O)Nc1nc(C)cc(C)n1` [sulfometuron-methyl, methyl 2-[[[[(4,6-dimethyl-2-pyrimidinyl)amino]carbonyl]amino]sulfonyl]benzoate], the solubility [2] is reported as < 1000 µg/mL.

With `COC(=O)c1ccccc1CS(=O)(=O)NC(=O)Nc1nc(OC)cc(OC)n1` [bensulfuron-methyl, methyl 2-[[[[[(4,6-dimethoxy-2-pyrimidinyl)amino]carbonyl]amino]-sulfonyl]methyl]benzoate] the solubility [2] was < 1000 µg/mL.

For `COc1nc(C)nc(NC(=O)NS(=O)(=O)c2ccccc2OCCCl)n1` [triasulfuron, 2-(2-chloroethoxy)-N-[[(4-methoxy-6-methyl-1,3,5-triazin-2-yl)amino]carbonyl]benzenesulfonamide], the pKa [1] is given as 4.6.

With `CCOC(=O)c1ccccc1S(=O)(=O)NC(=O)Nc1nc(Cl)cc(OC)n1` [chlorimuron-ethyl, ethyl 2-[[[[(4-chloro-6-methoxy-2-pyrimdinyl)amino]carbonyl]amino]sulfonyl]benzoate] the solubility [2] was 1000 to 10000 µg/mL (≈ 2410 to 24100 µM).

In the case of `O=P([O-])([O-])OP(=O)([O-])[O-].[K+].[K+].[K+].[K+]` [K4P2O7, potassium pyrophosphate], the “First pKa (conjugate acid)” value [3] is given as 9.0, the “Second pKa (conjugate acid)” value [3] is given as 7.0 and the “Third pKa (conjugate acid)” value [3] is given as 2.0.

For `O=P([O-])([O-])OP(=O)([O-])[O-].[Na+].[Na+].[Na+].[Na+]` [Na4P2O7, sodium pyrophosphate], the “First pKa (conjugate acid)” value [3] is listed as 9.0, the “Second pKa (conjugate acid)” value [3] is listed as 7.0 and the “Third pKa (conjugate acid)” value [3] is listed as 2.0.

In the case of `COCCOc1ccccc1S(=O)(=O)NC(=O)N=c1nc(OC)[nH]c(OC)n1` [cinosulfuron, N-[[(4,6-dimethoxy-1,3,5-triazin-2-yl)amino]carbonyl]-2-(2-methoxyethoxy)benzenesulfonamide], the pKa [1] is given as 4.7.

In the case of `O.O=C([O-])[O-].[Na+].[Na+]` [Na2CO3.H2O, sodium carbonate monohydrate], the “First pKa (conjugate acid)” value [3] is listed as 10.2 and the “Second pKa (conjugate acid)” value [3] is listed as 6.4.

In the case of `O=C([O-])[O-].[K+].[K+]` [K2CO3, potassium carbonate], the “First pKa (conjugate acid)” value [3] is given as 10.2 and the “Second pKa (conjugate acid)” value [3] is given as 6.4.

For `COc1cc(OC)nc(NC(=O)NS(=O)(=O)c2ncccc2OCC(F)(F)F)n1` [trifloxysulfuron, N-[[(4,6-dimethoxy-2-pyrimidinyl)amino]-carbonyl]-3-(2,2,2-trifluoroethoxy)-2-pyridinesulfonamide], the pKa [1] is listed as 4.8.

Compound `COC(=O)c1ccccc1S(=O)(=O)NC(=O)N(C)c1nc(C)nc(OC)n1` [tribenuron-methyl, methyl 2-[[[[N-(4-methoxy-6-methyl-1,3,5-triazin-2-yl)-N-methylamino]carbonyl]-amino]sulfonyl]benzoate] has a solubility [2] of 1000 to 10000 µg/mL (≈ 2530 to 25300 µM).

For `O=C([O-])[O-].[Na+].[Na+]` [Na2CO3, sodium carbonate], the “First pKa (conjugate acid)” value [3] is listed as 10.2 and the “Second pKa (conjugate acid)” value [3] is listed as 6.4.

For `COC(=O)c1c(Cl)nn(C)c1S(=O)(=O)NC(=O)Nc1nc(OC)cc(OC)n1` [halosulfuron-methyl, methyl 3-chloro-5-[[[[(4,6-dimethoxy-2-pyrimidinyl)amino]carbonyl]amino]sulfonyl]-1-methyl-1H-pyrazole-4-carboxylate], the pKa [1] is given as 3.4.

For “N-[[[2-(cyclopropylcarbonyl)phenyl]amino]sulfonyl]-N^1-(4,6-dimethoxypyrimidin-2-yl)urea [cyclosulfamuron]”, the pKa [1] is listed as 5.0.

With `COC(=O)c1ccccc1S(=O)(=O)NC(=O)Nc1nc(C)nc(OC)n1` [metsulfuron-methyl, methyl 2-[[[[(4-methoxy-6-methyl-1,3,5-triazin-2-yl)amino]carbonyl]amino]sulfonyl]-benzoate] the solubility [2] was 1000 to 10000 µg/mL (≈ 2620 to 26200 µM).

In the case of “sodium phosphate dodecahydrate [Na3PO4.12H2O]”, the “Second pKa (conjugate acid)” value [3] is listed as 7.2 and the “Third pKa (conjugate acid)” value [3] is listed as 2.1.
